In the Kinase Knowledgebase extract (Sharma et al. 2016):
Several values for one entry are separate records, joined by “and”; a condition that tells them apart may be missing. Equal values may be shown once.

Columns and labels:
EGFR (human) [1] = target: EGFR (human) (UniProt P00533); conditions: HN5
EGFR (human) [2] = target: EGFR (human) (UniProt P00533); conditions: hn5
EGFR (human) [3] = target: EGFR (human) (UniProt P00533); conditions: a431
EGFR (human) [4] = target: EGFR (human) (UniProt P00533); conditions: caski
EGFR (human) [5] = target: EGFR (human) (UniProt P00533); conditions: siha

EGFR (human), sequence (P00533 whole entry, looked up): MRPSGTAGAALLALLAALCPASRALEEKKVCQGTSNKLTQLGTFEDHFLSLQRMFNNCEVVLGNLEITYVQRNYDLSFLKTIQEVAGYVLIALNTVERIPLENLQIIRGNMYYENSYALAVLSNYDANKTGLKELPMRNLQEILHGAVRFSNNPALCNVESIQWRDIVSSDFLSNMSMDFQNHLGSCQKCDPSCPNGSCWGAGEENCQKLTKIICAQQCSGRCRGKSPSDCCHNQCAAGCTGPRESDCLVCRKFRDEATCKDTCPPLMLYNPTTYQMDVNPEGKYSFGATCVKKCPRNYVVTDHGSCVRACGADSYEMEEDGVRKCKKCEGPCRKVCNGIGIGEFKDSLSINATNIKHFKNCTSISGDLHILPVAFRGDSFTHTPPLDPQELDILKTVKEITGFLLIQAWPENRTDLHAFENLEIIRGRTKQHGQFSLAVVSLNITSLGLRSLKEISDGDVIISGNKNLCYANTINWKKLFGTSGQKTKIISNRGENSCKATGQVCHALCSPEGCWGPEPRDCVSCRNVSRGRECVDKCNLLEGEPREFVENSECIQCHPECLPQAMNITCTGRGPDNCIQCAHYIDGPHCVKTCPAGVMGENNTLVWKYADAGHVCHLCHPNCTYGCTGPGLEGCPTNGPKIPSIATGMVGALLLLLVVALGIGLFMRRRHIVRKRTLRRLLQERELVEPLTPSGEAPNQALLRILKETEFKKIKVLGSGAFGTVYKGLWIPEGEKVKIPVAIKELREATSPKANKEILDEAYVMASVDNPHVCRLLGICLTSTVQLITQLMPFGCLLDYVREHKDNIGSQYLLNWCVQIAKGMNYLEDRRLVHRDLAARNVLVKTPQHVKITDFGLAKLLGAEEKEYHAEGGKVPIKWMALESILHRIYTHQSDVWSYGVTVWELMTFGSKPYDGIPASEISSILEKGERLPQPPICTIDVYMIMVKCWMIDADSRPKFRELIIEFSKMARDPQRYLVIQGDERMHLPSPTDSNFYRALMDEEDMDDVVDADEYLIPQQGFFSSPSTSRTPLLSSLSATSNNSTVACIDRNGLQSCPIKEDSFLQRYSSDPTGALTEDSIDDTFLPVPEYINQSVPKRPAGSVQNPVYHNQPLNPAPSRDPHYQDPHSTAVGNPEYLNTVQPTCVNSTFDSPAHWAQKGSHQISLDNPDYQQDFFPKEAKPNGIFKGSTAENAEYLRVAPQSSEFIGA

Row | SMILES | IC50 (EGFR (human) [1]) | IC50 (EGFR (human) [2]) | IC50 (EGFR (human) [3]) | IC50 (EGFR (human) [4]) | IC50 (EGFR (human) [5])
1 | N#C/C(=C\c1ccc([N+](=O)[O-])s1)C(=O)O | 150 µM and > 500 µM | – | – | – | –
2 | N#CC(C#N)=Cc1ccc([N+](=O)[O-])s1 | 50 µM | 20.7 µM | 28 µM | 25.8 µM | 25.4 µM
3 | N#CC(C#N)=C(N)/C(C#N)=C/c1csc([N+](=O)[O-])c1 | 7 µM | > 100 µM | > 100 µM | > 100 µM | > 100 µM
4 | N#CC(C#N)=Cc1ccsc1[N+](=O)[O-] | 15.3 µM | – | – | – | –
5 | CCCCOC(=O)/C(C#N)=C/c1ccsc1[N+](=O)[O-] | > 500 µM | – | – | – | –
6 | N#CC(C#N)=C(N)/C(C#N)=C/c1cc([N+](=O)[O-])cs1 | 160 µM | – | – | – | –
7 | N#C/C(=C\c1ccc([N+](=O)[O-])s1)C(N)=O | > 500 µM | – | – | – | –
8 | N#C/C(=C\c1csc([N+](=O)[O-])c1)C(=O)O | > 500 µM | – | – | – | –
9 | N#C/C(=C\c1ccsc1[N+](=O)[O-])C(N)=O | 400 µM | – | – | – | –
10 | CCOC(=O)/C(C#N)=C/c1ccsc1[N+](=O)[O-] | 100 µM | – | – | – | –
11 | N#CC(C#N)=Cc1cc([N+](=O)[O-])cs1 | 2 µM | – | – | – | –
12 | CCOC(=O)/C(C#N)=C/c1cc([N+](=O)[O-])cs1 | > 500 µM | – | – | – | –
13 | N#C/C(=C\c1csc([N+](=O)[O-])c1)C(N)=S | 10.5 µM | – | – | – | –

The remaining lines, values ahead:

Row | IC50 (EGFR (human) [1]) | IC50 (EGFR (human) [2]) | IC50 (EGFR (human) [3]) | IC50 (EGFR (human) [4]) | IC50 (EGFR (human) [5]) | SMILES
14 | > 500 µM | – | – | – | – | CCCCOC(=O)/C(C#N)=C/c1ccc([N+](=O)[O-])s1
15 | > 500 µM | – | – | – | – | N#C/C(=C\c1cc([N+](=O)[O-])cs1)C(N)=S
16 | 22.6 µM | 0.27 µM | 0.11 µM | 0.32 µM | 0.35 µM | N#C/C(=C\c1ccsc1[N+](=O)[O-])C(N)=S
17 | 47 µM | – | – | – | – | N#C/C(=C\c1cc([N+](=O)[O-])cs1)C(N)=O
18 | 14.6 µM | 5.1 µM | 4.73 µM | 4.7 µM | 7.8 µM | N#CC(C#N)=C(N)/C(C#N)=C/c1ccsc1[N+](=O)[O-]
19 | 50 µM | – | – | – | – | COC(=O)/C(C#N)=C/c1ccsc1[N+](=O)[O-]
20 | 9 µM | – | – | – | – | CC(C)(C)OC(=O)/C(C#N)=C/c1ccsc1[N+](=O)[O-]
21 | > 500 µM | – | – | – | – | COC(=O)/C(C#N)=C/c1csc([N+](=O)[O-])c1
22 | 9 µM | > 100 µM | > 100 µM | > 100 µM | > 100 µM | CCOC(=O)/C(C#N)=C/c1csc([N+](=O)[O-])c1
23 | 75 µM | – | – | – | – | CC(C)(C)OC(=O)/C(C#N)=C/c1ccc([N+](=O)[O-])s1
24 | > 500 µM | – | – | – | – | N#C/C(=C\c1csc([N+](=O)[O-])c1)C(N)=O
25 | > 500 µM | – | – | – | – | COC(=O)/C(C#N)=C/c1ccc([N+](=O)[O-])s1
26 | > 500 µM | – | – | – | – | CCCCOC(=O)/C(C#N)=C/c1cc([N+](=O)[O-])cs1
27 | > 500 µM | – | – | – | – | CCCCOC(=O)/C(C#N)=C/c1csc([N+](=O)[O-])c1
28 | 150 µM | – | – | – | – | CC(C)(C)OC(=O)/C(C#N)=C/c1csc([N+](=O)[O-])c1
29 | 18 µM | – | – | – | – | COC(=O)/C(C#N)=C/c1cc([N+](=O)[O-])cs1
30 | 37.5 µM | 66.9 µM | 71.6 µM | 82.9 µM | 82.1 µM | N#C/C(=C\c1ccc([N+](=O)[O-])s1)C(N)=S
